Data on one compound can be found in ChEMBL document CHEMBL5725713, “5-aminopyrazole-4-carboxamide inhibitors of CDPK1 from T. gondii and C. parvum” (2016).

The IC50 is the concentration that inhibits the measured activity by half.

This test has as its target T1, Calmodulin-domain protein kinase 1 (Toxoplasma gondii, UniProt Q9BJF5).
T1 sequence (Q9BJF5 whole entry): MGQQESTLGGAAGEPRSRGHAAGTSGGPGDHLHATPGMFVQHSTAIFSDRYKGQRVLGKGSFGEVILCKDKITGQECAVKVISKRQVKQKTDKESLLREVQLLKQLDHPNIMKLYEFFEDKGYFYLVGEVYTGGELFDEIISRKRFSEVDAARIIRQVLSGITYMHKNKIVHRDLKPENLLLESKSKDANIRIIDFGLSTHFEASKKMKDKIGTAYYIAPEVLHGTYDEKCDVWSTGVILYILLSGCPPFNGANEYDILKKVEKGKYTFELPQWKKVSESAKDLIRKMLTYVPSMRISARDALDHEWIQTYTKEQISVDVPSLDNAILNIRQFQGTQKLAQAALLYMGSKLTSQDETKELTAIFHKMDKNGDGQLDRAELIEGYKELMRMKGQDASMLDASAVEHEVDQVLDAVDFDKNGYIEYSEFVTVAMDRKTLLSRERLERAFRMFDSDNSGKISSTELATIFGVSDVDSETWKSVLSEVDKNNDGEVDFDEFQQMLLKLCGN
Kind of test: Luminescent Kinase Assay: Inhibition of TgCDPK1 and CpCDPK1 was determined using a luminescent kinase assay which measures ATP depletion in the presence of the Syntide 2 peptide substrate (KinaseGlo). For description of the methods and assays, see WO 2011/094628, incorporated by reference herein.

For `CC(C)(C)n1cc(C(N)=O)c(-c2ccc3c(N)n[nH]c3c2)n1`, the IC50 stood at 40 nM.
